Experimental data as given in article PMC8158254, “Anion inhibition studies of the α-carbonic anhydrases from Neisseria gonorrhoeae” (Journal of Enzyme Inhibition and Medicinal Chemistry, 2021).
pKi: −log10 of the molar value. Like-named read-outs stand apart in the source and are kept apart here.

Target: T1, NgCA (Neisseria gonorrhoeae, UniProt Q50940)
T1 construct: gene cah
T1 sequence (Q50940 27-252): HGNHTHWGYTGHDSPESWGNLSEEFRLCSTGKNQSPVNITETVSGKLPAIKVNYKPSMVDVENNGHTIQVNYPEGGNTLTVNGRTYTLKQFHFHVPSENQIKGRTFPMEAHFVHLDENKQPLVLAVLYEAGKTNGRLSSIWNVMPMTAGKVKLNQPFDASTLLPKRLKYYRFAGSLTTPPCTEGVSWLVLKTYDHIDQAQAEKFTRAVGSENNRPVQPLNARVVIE
Test: biochemical

SMILES	pKi (read-out: NgCA)	further results
Br [Br^−]	2.40	–
O=S(=O)(O)C(F)(F)F [CF3SO3^−]	2.24	–
S=C(S)S [CS3^2-]	4.06	–
[O-][Cl+3]([O-])([O-])O [ClO4^−]	< 1.00	–
Cl [Cl^−]	2.32	–
CCN(CC)C(=S)S [EtNCS2^−]	5.29	–
O=S(=O)(O)F [FSO3^−]	3.21	–
F [F^−]	2.08	–
O=S(O)O [HSO3^−]	3.18	–
S [HS^−]	3.26	–
I [I^−]	–	pKi: 2.02
N#CO [NCO^−]	3.37	–
N#CS [NCS^−]	–	pKi: 3.04
NS(N)(=O)=O [NH2SO2NH2]	4.24	–
NS(=O)(=O)O [NH2SO3H]	4.62	–
O=S(=O)(O)NS(=O)(=O)O [NH(SO3)2^2-]	3.60	–
O=NO [NO2^−]	3.23	–
O=[N+]([O-])O [NO3^−]	3.07	–
O=P(O)(O)OP(=O)(O)O [P2O7^2-]	–	pKi: 2.31
F[P-](F)(F)(F)(F)F [PF6^−]	–	pKi (sodium salt, CO2 substrate, 10 mM Hepes pH 7.4, 10 mM NaClO4, 15 min preincubation at room temperature, read-out: hCA I): < 1.00
OB(O)c1ccccc1 [PhB(OH)2]	3.82	–
[O]=[Re](=[O])(=[O])[OH] [ReO4^−]	3.02	–
[O]=[Ru](=[O])(=[O])[OH] [RuO4^−]	2.72	–
O=S(=O)(O)OOS(=O)(=O)O [S2O8^2-]	3.10	–
O=S(=O)(O)O [SO4^2-]	–	pKi: 3.08
N#C[SeH] [SeCN^−]	3.18	–
O=[Se](=O)(O)O [SeO4^2-]	3.06	–
O=[Te](=O)(O)O [TeO4^2-]	3.12	–
[O]=[V]([OH])([OH])[O][V](=[O])([OH])[OH] [V2O7^2-]	2.55	–
